US20260284019A1, “CARBOXAMIDE COMPOUNDS AS SUMO ACTIVATING COMPOUNDS FOR TREATMENT OF CARDIOVASCULAR DISEASES” (NOVOHEART INTERNATIONAL LIMITED, priority 2023, published 2026)
“Also recorded” adds a separate entry of the source. One block for each molecule: values may come before it.

Tests used:
[1] = system: human ventricular cardiac tissue strips (hvCTS); assay: Contractility of matured human ventricular cardiac tissue strips (hvCTS), twitch force from post deflection; assay type: cell-based; conditions: for effect on developed force: matured hvCTS with positive force frequency relationship, day 24; for effect on developed force / effect on relaxation time: 1.5 Hz, 10 minutes after each dose
Source text: FIG. 5 discloses the dose-dependent effects of stereoisomers of Compounds 6 on developed force in human cardiac tissue strips that were subjected to maturation protocol (see description below in the section entitled “Maturation of hvCTS”) with maturation media and electrical stimulation of 0.5 Hz from day 7-10, 1.0 Hz from day 10-13, 1.5 Hz from day 13-15, 2.0 Hz from day 16-19, 2.5 Hz from day 19-22 and 3.0 from day 22-24. Contractile data were collected at day 24 post-hvCTS fabrication. Developed forces were measured at 1.5 Hz, 10 minutes after administration of each dose of each stereoisomer. Only hvCTSs with positive force frequency relationships (+FFRs) were tested.
Contractile data were collected at day 24 post-hvCTS fabrication. Developed forces were measured at 1.5 Hz, 10 minutes after administration of each dose of the stereoisomer. Only hvCTSs with positive force frequency relationships (+FFRs) were tested.
(§1) To investigate the effects of carboxamide compounds as SUMOylation activators, the compounds were subjected to an ATP-based assay of SUMO E1 ligase activity. The racemic mixture of each compound was first tested with the SUMO E1 ligase assay to test for SUMO activation activity. Compounds with no SUMO E1 ligase activity were excluded. For compounds with recorded SUMO E1 ligase activity, their four pure stereoisomers were tested for SUMO E1 ligase activity by measuring the adenosine monophosphate (AMP) produced from the E1 ligase reaction as described below. Each pure stereoisomer was also subjected to functional analysis in engineered cardiac tissues (FIG. 3A). The pure stereoisomers of compounds with SUMO E1 ligase activity were administered to human ventricular cardiac tissue strips that had been subjected to a maturation protocol (see below). […] Stereoisomers that could induce SERCA2a SUMOylation were further tested for their inotropic effects, in hvCTS models of cardiomyopathy and heart failure, by fabrication of hvCTS with cardiomyocytes derived from human induced pluripotent stem cells (i.e., hiPSCs) of patients with cardiomyopathy.
The effects of compounds on cardiac muscle function as evaluated by the Novoheart hvCTS assay are derived from tracings of twitch force versus time. The twitch force may be calculated from measurements of end-post deflection based on a published beam-bending equation as previously described.^29, 30 The twitch force tracings are then analyzed from each “heartbeat” of the tissue, and averaged over multiple beats to extract metrics related to the beat rate frequency and beat rate variability, the passive and active tissue forces, and the contraction and relaxation kinetics, as detailed previously in the field^29-32, and briefly described as follows:
For each beat, the “passive (or diastolic) force” is the minimum value of the twitch force; the “active (or systolic) force” is the maximum value of the twitch force; and the “contractile (or developed) force” is the difference between the systolic and diastolic forces.
“Contractile kinetics”, in some aspects, are analyzed by examining the twitch force tracing during the increase from the diastolic minimum to the systolic maximum portion of the curve, and these can include the duration of rise time from diastolic to systolic force and related metrics (e.g. duration of rise time from 5% maximum to 95% maximum force, and the like), the area under the curve of rise time from minimum to maximum force, the maximum rate of change of force versus time during contraction (max+dF/dt), and other related metrics. […]

[2] = cited from earlier work
SUMO E1 ligase protein = target: T1, SUMO E1 ligase protein (Homo sapiens, UniProt Q9UBE0+Q9UBT2); assay: In vitro SUMO E1 ATP hydrolysis assay for SUMO E1 ligase activity (AMP produced, luciferase luminescence); assay type: biochemical; conditions: racemic mixtures; for SUMO E1 activity (luminescence), ranking among the 11 compounds: 1 μM concentration; for dose-dependent effect in SUMO E1 assays compared with control compound N106: luminescence, FIG. 4B
T1 sequence (Q9UBE0 1-346): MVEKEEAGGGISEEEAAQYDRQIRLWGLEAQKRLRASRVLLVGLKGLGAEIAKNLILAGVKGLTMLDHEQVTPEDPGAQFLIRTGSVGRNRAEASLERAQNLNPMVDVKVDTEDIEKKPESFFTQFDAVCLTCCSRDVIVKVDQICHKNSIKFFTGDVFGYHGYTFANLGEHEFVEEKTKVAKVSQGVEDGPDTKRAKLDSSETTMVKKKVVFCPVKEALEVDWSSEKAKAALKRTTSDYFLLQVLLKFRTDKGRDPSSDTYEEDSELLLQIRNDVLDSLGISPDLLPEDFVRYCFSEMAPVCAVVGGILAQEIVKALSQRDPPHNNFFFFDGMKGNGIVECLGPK
T1 sequence (Q9UBT2 1-640): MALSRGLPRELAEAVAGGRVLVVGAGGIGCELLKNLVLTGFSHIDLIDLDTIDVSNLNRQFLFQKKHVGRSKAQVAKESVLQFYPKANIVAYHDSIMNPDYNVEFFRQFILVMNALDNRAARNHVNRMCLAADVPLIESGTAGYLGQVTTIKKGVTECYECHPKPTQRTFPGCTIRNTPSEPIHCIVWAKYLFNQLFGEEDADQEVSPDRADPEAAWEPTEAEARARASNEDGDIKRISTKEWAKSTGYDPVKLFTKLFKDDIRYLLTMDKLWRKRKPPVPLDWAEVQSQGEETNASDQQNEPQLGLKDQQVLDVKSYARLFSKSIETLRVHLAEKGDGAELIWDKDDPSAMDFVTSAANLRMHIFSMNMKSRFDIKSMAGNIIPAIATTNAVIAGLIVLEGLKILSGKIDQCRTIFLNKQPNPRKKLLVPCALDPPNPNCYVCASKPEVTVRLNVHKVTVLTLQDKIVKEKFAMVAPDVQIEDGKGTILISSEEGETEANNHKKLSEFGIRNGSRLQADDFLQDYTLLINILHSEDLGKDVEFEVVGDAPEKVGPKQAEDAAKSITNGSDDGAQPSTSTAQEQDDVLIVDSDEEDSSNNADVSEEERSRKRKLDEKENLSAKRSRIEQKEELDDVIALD
Protocol: as §1
Stereoisomers of the test compounds were incubated with SUMO E1 ligase protein and ATP. E1 ligase activation by the test compound was determined by measuring the AMP produced during the enzymatic reaction after removal of the remaining ATP by ATP adenyl cyclase and converting AMP to ADP by polyphosphate-AMP phosphotransferase. The converted ADP was further converted to ATP using […] and detected through luciferase reaction.

SMILES: C[C@H](NC(=O)[C@H]1CC(=O)N(c2ccc(C(=O)c3ccccc3)cc2)C1)c1cnn2ccccc12 [Compound 6-2, 1-(4-benzoylphenyl)-(S)-5-oxo-N—((S)-1-(pyrazolo[1,5-a]pyridin-3-yl)ethyl) pyrrolidine-3-carboxamide]
- concentration at which the increase in developed force peaked ([1]; matured hvCTS): 1 µM
- contractility (overall conclusion) ([1]; matured hvCTS): improved
- effect on contraction time ([1]; matured hvCTS): did not show any significant difference
- effect on passive tension ([1]; matured hvCTS): did not show any significant difference
- effect on developed force [1]: positive inotropic effects; also recorded: concentration-dependent increase
- effect on relaxation time ([1]; matured hvCTS): did not show any significant difference

SMILES: C[C@@H](NC(=O)[C@H]1CC(=O)N(c2cccnc2)C1)c1cnn2ccccc12 [Compound 9-4, (S)-5-oxo-N—((R)-1-(pyrazolo[1,5-a]pyridin-3-yl)ethyl)-1-(pyridin-3-yl) pyrrolidine-3-carboxamide]
- inhibition at 1 µM ([1]; Homo sapiens, 10 min, matured hvCTS, at 1 μM, read-out: maximum decrease in developed force): 10%
- effect on developed force [1]: small but significant dose-dependent decrease
- effect on relaxation time ([1]; matured hvCTS): decrease in relaxation time that was dose dependent

SMILES: C[C@H](NC(=O)[C@@H]1CC(=O)N(c2cccnc2)C1)c1cnn2ccccc12 [Compound 9-3, (R)-5-oxo-N—((S)-1-(pyrazolo[1,5-a]pyridin-3-yl)ethyl)-1-(pyridin-3-yl) pyrrolidine-3-carboxamide]
- contractile kinetics (overall conclusion) ([1]; matured hvCTS): improved
- effect on relaxation time ([1]; matured hvCTS): decrease in relaxation time that was dose dependent
- decrease in relaxation time ([1]; matured hvCTS, at 10 μM): 15%

SMILES: C[C@H](NC(=O)[C@H]1CC(=O)N(c2cccnc2)C1)c1cnn2ccccc12 [Compound 9-2, (S)-5-oxo-N—((S)-1-(pyrazolo[1,5-a]pyridin-3-yl)ethyl)-1-(pyridin-3-yl) pyrrolidine-3-carboxamide]
- effect on relaxation time ([1]; matured hvCTS): decrease in relaxation time that was dose dependent

SMILES: C[C@@H](NC(=O)[C@@H]1CC(=O)N(c2ccc(C(=O)c3ccccc3)cc2)C1)c1cnn2ccccc12 [Compound 6-1, 1-(4-benzoylphenyl)-(R)-5-oxo-N—((R)-1-(pyrazolo[1,5-a]pyridin-3-yl)ethyl) pyrrolidine-3-carboxamide]
- concentration at which the increase in developed force peaked ([1]; matured hvCTS): 1 µM
- contractility (overall conclusion) ([1]; matured hvCTS): improved
- effect on contraction time ([1]; matured hvCTS): did not show any significant difference
- effect on passive tension ([1]; matured hvCTS): did not show any significant difference
- effect on developed force [1]: positive inotropic effects; also recorded: concentration-dependent increase
- effect on relaxation time ([1]; matured hvCTS): did not show any significant difference

SMILES: COc1ccc(-c2nnc(Nc3nc4c(OC)cccc4s3)o2)cc1 [Compound N106, N-(4-methoxybenzo[d]thiazol-2-yl)-5-(4-methoxyphenyl)-1,3,4-oxadiazol-2-amine]
- half-life in vivo [2]: too short

- SUMO E1 activity (luminescence), ranking among the 11 compounds (SUMO E1 ligase protein): largest effects; also recorded: highest
SMILES: CC(NC(=O)C1CC(=O)N(c2cnc3ccccc3c2)C1)c1cnn2ccccc12 (mixture of isomers) [Compound 11, 5-oxo-N-(1-(pyrazolo[1,5-a]pyridin-3-yl)ethyl)-1-(quinolin-3-yl) pyrrolidine-3-carboxamide]

- SUMO E1 activity (luminescence), ranking among the 11 compounds (SUMO E1 ligase protein): largest effects; also recorded: highest
SMILES: CC(NC(=O)C1CC(=O)N(c2ccc(C(=O)c3ccccc3)cc2)C1)c1cnn2ccccc12 (mixture of isomers) [Compound 6, 1-(4-benzoylphenyl)-5-oxo-N-(1-(pyrazolo[1,5-a]pyridin-3-yl)ethyl) pyrrolidine-3-carboxamide]
- dose-dependent effect in SUMO E1 assays compared with control compound N106 (SUMO E1 ligase protein): larger effects than the control compound N106

SMILES: C[C@@H](NC(=O)[C@@H]1CC(=O)N(c2cccnc2)C1)c1cnn2ccccc12 [Compound 9-1, (R)-5-oxo-N—((R)-1-(pyrazolo[1,5-a]pyridin-3-yl)ethyl)-1-(pyridin-3-yl) pyrrolidine-3-carboxamide]
- effect on relaxation time ([1]; matured hvCTS): decrease in relaxation time that was dose dependent

- SUMO E1 activity (luminescence), ranking among the 11 compounds (SUMO E1 ligase protein): largest effects; also recorded: highest
SMILES: CC(NC(=O)C1CC(=O)N(c2cccnc2)C1)c1cnn2ccccc12 (mixture of isomers) [Compound 9, 5-oxo-N-(1-(pyrazolo[1,5-a]pyridin-3-yl)ethyl)-1-(pyridin-3-yl) pyrrolidine-3-carboxamide]
- dose-dependent effect in SUMO E1 assays compared with control compound N106 (SUMO E1 ligase protein): larger effects than the control compound N106
